Results as given in ChEMBL document CHEMBL3526108, “Contribution of carboxylesterase in hamster to the intestinal first-pass loss and low bioavailability of ethyl piperate, an effective lipid-lowering drug candidate” (Drug Metab Dispos, 2011).

Columns and labels:
Hamster [1] = test: Absorption clearance in hamster at 400 uM administered as intestinal single-pass perfusion up to 1 hr by LC-MS/MS analysis in presence of BNPP; assay type: ADME, organism-based; settings: cricetinae, in vivo, other
Hamster [2] = test: Degradation clearance in hamster at 400 uM administered as intestinal single-pass perfusion up to 1 hr by LC-MS/MS analysis in presence of BNPP; assay type: ADME, organism-based; settings: cricetinae, in vivo, other
Hamster [3] = test: Absorption clearance in hamster at 400 uM administered as intestinal single-pass perfusion up to 1 hr by LC-MS/MS analysis; assay type: ADME, organism-based; settings: cricetinae, in vivo, other
Hamster [4] = test: Degradation clearance in hamster at 400 uM administered as intestinal single-pass perfusion up to 1 hr by LC-MS/MS analysis; assay type: ADME, organism-based; settings: cricetinae, in vivo, other
[5] = Apparent permeability coefficient of parent compound in hamster at 400 uM administered as intestinal single-pass perfusion up to 1 hr by LC-MS/MS analysis; assay type: ADME, organism-based; settings: cricetinae
Hamster [6] = test: Drug metabolism in hamster assessed as production of piperinic acid at 400 uM administered as intestinal single-pass perfusion up to 1 hr by LC-MS/MS analysis; assay type: ADME, organism-based; settings: cricetinae, in vivo, other
Hamster [7] = test: Drug metabolism in hamster assessed as appearance rate of parent compound in portal vein at 400 uM administered as intestinal single-pass perfusion up to 1 hr by LC-MS/MS analysis in presence of BNPP; assay type: ADME, organism-based; settings: cricetinae, in vivo, other
Hamster [8] = test: Drug metabolism in hamster assessed as disappearance rate of parent compound in intestine at 400 uM administered as intestinal single-pass perfusion up to 1 hr by LC-MS/MS analysis in presence of BNPP; assay type: ADME, organism-based; settings: cricetinae, in vivo, other
[9] = MRT (0 to t) in hamster at 30 mg/kg, po; assay type: ADME, organism-based; parameters: dose 30 mg/kg, route oral; settings: cricetinae, in vivo
[10] = Tmax in hamster at 30 mg/kg, po; assay type: ADME, organism-based; parameters: dose 30 mg/kg, route oral; settings: cricetinae, in vivo
[11] = Oral bioavailability in hamster at 30 mg/kg; assay type: ADME, organism-based; settings: cricetinae, in vivo
[12] = AUC (0 to t) in hamster at 10 mg/kg, iv; assay type: ADME, organism-based; parameters: dose 10 mg/kg, route intravenous; settings: cricetinae, plasma
[13] = AUC (0 to t) in hamster at 30 mg/kg, po; assay type: ADME, organism-based; parameters: dose 30 mg/kg, route oral; settings: cricetinae, plasma
[14] = Cmax in hamster at 30 mg/kg, po; assay type: ADME, organism-based; parameters: dose 30 mg/kg, route oral; settings: cricetinae, in vivo
[15] = MRT (0 to t) in hamster at 10 mg/kg, iv; assay type: ADME, organism-based; parameters: dose 10 mg/kg, route intravenous; settings: cricetinae, in vivo
[16] = Elimination half life in hamster at 10 mg/kg, iv; assay type: ADME, organism-based; parameters: dose 10 mg/kg, route intravenous; settings: cricetinae, in vivo, read-out: beta t1/2 (converted)
Hamster [17] = test: Volume of distribution in hamster at 10 mg/kg, iv; assay type: ADME, organism-based; parameters: dose 10 mg/kg, route intravenous; settings: cricetinae, in vivo
[18] = Stability of the compound at simulated gastrointestinal pH conditions assessed as degradation; assay type: ADME
[19] = Stability of the compound in hamster intestinal washings assessed as compound remaining at 100 uM after 1 hr by LC-MS/MS analysis; assay type: ADME; settings: cricetinae, read-out: Stability
[20] = Drug metabolism in hamster liver microsomes assessed as carboxylesterase-mediated compound hydrolysis at 50 uM after 30 mins; assay type: ADME; settings: cricetinae, 0.5 h
[21] = Drug metabolism in hamster kidney microsomes assessed as carboxylesterase-mediated compound hydrolysis at 50 uM after 30 mins; assay type: ADME; settings: cricetinae, 0.5 h
[22] = Drug metabolism in hamster intestinal microsomes assessed as carboxylesterase-mediated compound hydrolysis at 50 uM after 30 mins; assay type: ADME, Intestine; settings: cricetinae, 0.5 h
[23] = Drug metabolism in hamster liver microsomes assessed as carboxylesterase-mediated compound hydrolysis at 50 uM after 30 mins in presence of BNPP; assay type: ADME; settings: cricetinae, 0.5 h
[24] = Drug metabolism in hamster kidney microsomes assessed as carboxylesterase-mediated compound hydrolysis at 50 uM after 30 mins in presence of BNPP; assay type: ADME; settings: cricetinae, 0.5 h
[25] = Drug metabolism in hamster liver microsomes assessed as carboxylesterase-mediated compound hydrolysis at 50 uM after 30 mins in presence of BNPP in presence of BNPP; assay type: ADME; settings: cricetinae, 0.5 h
Hamster [26] = test: Drug metabolism in hamster assessed as appearance rate of parent compound in portal vein at 400 uM administered as intestinal single-pass perfusion up to 1 hr by LC-MS/MS analysis; assay type: ADME, organism-based; settings: cricetinae, in vivo, other
Hamster [27] = test: Drug metabolism in hamster assessed as disappearance rate of parent compound in intestine at 400 uM administered as intestinal single-pass perfusion up to 1 hr by LC-MS/MS analysis; assay type: ADME, organism-based; settings: cricetinae, in vivo, other
[28] = Apparent permeability coefficient of parent compound in hamster at 400 uM administered as intestinal single-pass perfusion up to 1 hr by LC-MS/MS analysis in presence of BNPP; assay type: ADME, organism-based; settings: cricetinae, with BNPP
Hamster [29] = test: Drug metabolism in hamster intestinal S9 fraction assessed as production of piperinic acid at 400 uM administered as intestinal single-pass perfusion up to 1 hr by LC-MS/MS analysis in presence of BNPP; assay type: ADME, Intestine; settings: cricetinae, s9, 1 h
[30] = Drug metabolism in hamster intestinal S9 fraction assessed as production of piperinic acid by Michaelis-Menten equation analysis; assay type: ADME, Intestine; settings: cricetinae
[31] = Permeability from apical to basolateral side of human Caco2 cells at 5 uM after 1 hr in presence of BNPP; assay type: ADME, cell-based; settings: caco-2, 1 h
[32] = Permeability from basolateral to apical side of human Caco2 cells at 5 uM after 1 hr in presence of BNPP; assay type: ADME, cell-based; settings: caco-2, 1 h
[33] = Drug recovery in human Caco2 cells at 5 uM after 1 hr in presence of BNPP; assay type: ADME, cell-based; settings: Caco-2, with BNPP, read-out: Drug recovery
[34] = Apparent permeability coefficient of compound in hamster treated with 400 uM of ethyl piperate administered as intestinal single-pass perfusion up to 1 hr by LC-MS/MS analysis in presence of BNPP; assay type: ADME, organism-based; settings: cricetinae
Hamster [35] = test: Drug metabolism in hamster assessed as appearance rate of compound in intestine treated with 400 uM of ethyl piperate administered as intestinal single-pass perfusion up to 1 hr by LC-MS/MS analysis; assay type: ADME, organism-based; settings: cricetinae, in vivo, other
[36] = Apparent permeability coefficient of compound in hamster treated with 400 uM of ethyl piperate administered as intestinal single-pass perfusion up to 1 hr by LC-MS/MS analysis; assay type: ADME, organism-based; settings: cricetinae
Hamster [37] = test: Drug metabolism in hamster assessed as appearance rate of compound in portal vein treated with 400 uM of ethyl piperate administered as intestinal single-pass perfusion up to 1 hr by LC-MS/MS analysis in presence of BNPP; assay type: ADME, organism-based; settings: cricetinae, in vivo, other
Hamster [38] = test: Drug metabolism in hamster assessed as appearance rate of compound in portal vein treated with 400 uM of ethyl piperate administered as intestinal single-pass perfusion up to 1 hr by LC-MS/MS analysis; assay type: ADME, organism-based; settings: cricetinae, in vivo, other
Hamster [39] = test: Drug metabolism in hamster assessed as appearance rate of compound in intestine treated with 400 uM of ethyl piperate administered as intestinal single-pass perfusion up to 1 hr by LC-MS/MS analysis in presence of BNPP; assay type: ADME, organism-based; settings: cricetinae, in vivo, other

## CCOC(=O)/C=C/C=C/c1ccc2c(c1)OCO2
Hamster [1]
  CL(app): 55 µL/min
Hamster [2]
  CL: 121.6 µL/min
Hamster [3]
  CL(app): 66.7 µL/min
Hamster [4]
  CL: 339.9 µL/min
[5]
  Papp at 1 h, 400 µM: 77 ×10⁻⁶ cm/s
Hamster [6]
  Drug metabolism: 0.196 nmol/min/mg
Hamster [7]
  Drug metabolism: 9.8 nmol/min
Hamster [8]
  Drug metabolism: 62.7 nmol/min
[9]
  MRT last: 24 min
[10]
  Tmax: 9 min
[11]
  bioavailability: 0.47%
[12]
  AUC(0-t): 2450 ng·h/mL
[13]
  AUC(0-t): 34.5 ng·h/mL
[14]
  Cmax: 70.4 ng/mL
[15]
  MRT last: 25.8 min
[16]
  half-life: 37.8 min
Hamster [17]
  Vz/F: 3.76 L/kg
[18]
  Stability: Stable
[19]
  remaining at 1 h, 100 µM: > 80%
[20]
  Drug metabolism: metabolite_detected
[21]
  Drug metabolism: metabolite_detected
[22]
  Drug metabolism: metabolite_detected
[23]
  Drug metabolism: metabolite_not_detected
[24]
  Drug metabolism: metabolite_not_detected
[25]
  Drug metabolism: metabolite_not_detected
Hamster [26]
  Drug metabolism: 10.8 nmol/min
Hamster [27]
  Drug metabolism: 76.5 nmol/min
[28]
  Papp at 1 h, 400 µM: 59.8 ×10⁻⁶ cm/s
Hamster [29]
  Drug metabolism: 0.06 nmol/min/mg
[30]
  Km: 7.56 µM
  Vmax: 0.16 nmol/min/mg
[31]
  permeability: impermeable
[32]
  permeability: impermeable
[33]
  recovery at 1 h, 5 µM: > 90%

## O=C(O)/C=C/C=C/c1ccc2c(c1)OCO2 [PIPERIC ACID]
[34]
  Papp at 1 h: 127 ×10⁻⁶ cm/s
Hamster [35]
  Drug metabolism: 2.3 nmol/min
[36]
  Papp at 1 h: 373 ×10⁻⁶ cm/s
Hamster [37]
  Drug metabolism: 21.7 nmol/min
Hamster [38]
  Drug metabolism: 52.1 nmol/min
Hamster [39]
  Drug metabolism: 2 nmol/min
